We go through two compounds from paper PMC9014415, “Repositioning of a Diaminothiazole Series Confirmed to Target the Cyclin-Dependent Kinase CRK12 for Use in the Treatment of African Animal Trypanosomiasis” (Journal of Medicinal Chemistry, 2022).

Series [1] in a line: Ames test for potential genotoxicity.
In series [2] the test system is T. congolense (KONT2/133). Description: Cattle efficacy for compound 2, intravenous infusion (Clinvet), T. congolense. The series is classed as in vivo, Trypanosoma congolense. As to conditions: Friesian-Holstein cattle infected with T. congolense; n = 4; at 100 days. How it is done:
Unfortunately, an injection site tolerability issue arose during the pharmacokinetic study in cattle that was not evident in rats. […] To circumvent these issues, compound 2 was assessed in an in vivo proof of concept efficacy study in Friesian-Holstein cattle using an IV infusion regimen. The study was conducted in four animals infected with T. congolense (KONT2/133) and four animals infected with T. vivax (STIB719). Three additional animals infected with each strain formed the vehicle control groups and were dosed IV once daily with saline. Pharmacokinetic modeling was used to define a dosing regimen that mimics the blood concentration–time profile that delivered cure in mice (10 mg/kg SC once daily for 2 days, with a Ctrough of >20 ng/mL (>38 nM)). A continuous infusion over 36 h and two loading doses 24 h apart were required. […]
Response to treatment was determined by monitoring parasitaemia twice a week until day 21. […]
In each of the cattle efficacy studies (3.3, 3.4 and 3.5), efficacy was assessed primarily on absence of recrudescence of parasitaemia for 100 days after treatment administration together with improvements in Packed Cell Volume, body weight and clinical signs of infected compared with uninfected animals. […]

A short description of series [3]: Injection site tolerance in the IM efficacy study in African cattle. The series is classed as in vivo. As to conditions: free base in Kolliphor EL, NMP, 2-pyrrolidone, 11% water. As for the experimental part: Compound 2 was only partially curative for cattle infected with T. congolense following two doses (1/4 and 2/4 in different treatment arms), administered 15 h apart (Table 4, Table S8, and Figure S9a). The curative regimen aligned well with PK/PD data from mice. However, cattle infected with T. vivax and dosed IM were not cured despite the fact that PK data from some T. vivax-infected cattle (Table 4, Table S9, and Figure S9b) predicted that a dosing at this level should have been curative based on mouse data. This lack of efficacy at exposures expected to deliver a cure is even more perplexing when the metabolism of compound 2 is considered. […] The rate and extent of this metabolism is higher in T. vivax-infected animals compared to those infected with T. congolense (Table S10) for reasons that are not clear.

On to `CC(C)CS(=O)(=O)N[C@H]1CC[C@H](Nc2nc(N)c(C(=O)c3c(F)cccc3F)s2)CC1` [Compound 1, N-((trans)-4-((4-Amino-5-(2,6-difluorobenzoyl)thiazol-2-yl)amino)cyclohexyl)-2-methylpropane-1-sulfonamide], for which, in series [1], the Ames entry was “negative”.
`CC(C)CS(=O)(=O)N[C@H]1CC[C@H](Nc2nc(N)c(C(=O)c3c(F)cc(CN(C)C)cc3F)s2)CC1` [Compound 2, N-(trans)-[4-[[4-Amino-5-[4-(dimethylaminomethyl)-2,6-difluoro-benzoyl]thiazol-2-yl]amino]cyclohexyl]-2-methyl-propane-1-sulfonamide]: the “Efficacy in cattle, IV bolus and infusion” value in series [2] was “cured”. Further, the Injection site tolerance result in series [3] is given as “injection site tolerance issues”.
